Consider 13 compounds from patent US20260028326A1, “COMPOUND BASED ON ISOINDOLINE-SUBSTITUTED GLUTARIMIDE BACKBONE AND USE THEREOF” (GLUETACS THERAPEUTICS (SHANGHAI) CO., LTD., priority 2022, published 2026).

Assay [1] concerns the target IKZF3 protein (Homo sapiens (Human), UniProt Q96SW2+Q9UKT9). Briefly: Western-blot assay of substrate protein degradation in hPBMC, IKZF3. The assay is classed as cell-based. The following applies: hPBMC cells, compound 500 nM, 24 hours, Western blot.
Assay [2] relates to Mino cells. As to the kind of experiment: Tumor cell proliferation IC50 (CCK-8), Mino.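 Further: cell viability assessed with CCK-8 reagent after compound exposure, IC50 derived from plotted growth inhibition curves.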 As to conditions: Homo sapiens, 72 h, read-out: IC50 for inhibiting the proliferation of tumor cells, Mino.
Protocol: (§1) The tumor cells used herein were cultured in a cell culture medium listed in table A at 37° C. in an incubator with 5% CO2.
(§2) After the cells were treated with the compounds of the present disclosure for a period of time, the cell viability detection reagent was added to the culture medium for cell viability assessment according to the instructions provided with the CCK-8 kit. […] The growth inhibition of the compounds of the present disclosure on cells was plotted by Prism Graphpad software, and the IC50 values of the compounds of the present disclosure were calculated therefrom.
The subject of assay [3] is Daudi cells. As to the kind of experiment: Tumor cell proliferation IC50 (CCK-8), Daudi.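 Further: cell viability read with CCK-8 reagent after compound exposure of Daudi cells, IC50 derived from plotted growth inhibition curves.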 As to conditions: Homo sapiens, read-out: IC50 for inhibiting the proliferation of tumor cells, Daudi.
Protocol: as §1, §2
For assay [4], the target named is human Cereblon WT GST-tagged protein (Homo sapiens (Human), UniProt Q96SW2). Briefly: CRBN-binding affinity, HTRF (CEREBLON BINDING kit). Summed up: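 HTRF competition readout: compounds compete with a thalidomide-Re conjugate for GST-tagged wild-type human CRBN detected via Eu-labelled anti-GST antibody. Inhibition rate derived relative to protein-free blank wells.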

Assay [5] has as its target GSPT1 protein (Homo sapiens (Human), UniProt P15170+Q96SW2). As to the kind of experiment: Western-blot assay of substrate protein degradation in hPBMC, GSPT1. The assay is classed as cell-based. The following applies: hPBMC cells, compound 500 nM, 24 hours, Western blot.
Assay [6] addresses IKZF1 protein (Homo sapiens (Human), UniProt Q13422+Q96SW2). As to the kind of experiment: Western-blot assay of substrate protein degradation in hPBMC, IKZF1. The assay is classed as cell-based. The following applies: hPBMC cells, compound 500 nM, 24 hours, Western blot.
Assay [7] has as its system MM.1S cells. Briefly: Tumor cell proliferation IC50 (CCK-8), MM.1S.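 Further: viability of cultured cells read by CCK-8 reagent after compound exposure, growth inhibition curves fitted to derive IC50.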 The following applies: Homo sapiens, MM1.S, 72 h, read-out: IC50 for inhibiting the proliferation of tumor cells, MM.1S.
The test system of assay [8] is CCRF-CEM cells. Briefly: Tumor cell proliferation IC50 (CCK-8), CCRF-CEM.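 Further: cell viability measured with CCK-8 reagent after compound treatment, IC50 taken from plotted growth inhibition curves.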 As to conditions: Homo sapiens, 96 h, read-out: IC50 for inhibiting the proliferation of tumor cells, CCRF-CEM.

Sequence of human Cereblon WT GST-tagged protein (Q96SW2 whole entry): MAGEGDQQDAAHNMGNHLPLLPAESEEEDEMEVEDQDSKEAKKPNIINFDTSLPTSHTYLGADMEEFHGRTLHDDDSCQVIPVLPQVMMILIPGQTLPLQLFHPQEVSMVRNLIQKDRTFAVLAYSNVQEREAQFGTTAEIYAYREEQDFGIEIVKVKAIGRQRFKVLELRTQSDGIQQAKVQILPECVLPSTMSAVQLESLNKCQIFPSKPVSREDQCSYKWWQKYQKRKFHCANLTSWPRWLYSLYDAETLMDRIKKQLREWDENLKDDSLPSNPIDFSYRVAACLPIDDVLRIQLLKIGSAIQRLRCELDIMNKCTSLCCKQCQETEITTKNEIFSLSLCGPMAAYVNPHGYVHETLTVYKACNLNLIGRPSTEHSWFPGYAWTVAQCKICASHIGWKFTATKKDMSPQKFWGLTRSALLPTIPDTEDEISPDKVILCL
Sequence of IKZF1 protein (Q13422 whole entry): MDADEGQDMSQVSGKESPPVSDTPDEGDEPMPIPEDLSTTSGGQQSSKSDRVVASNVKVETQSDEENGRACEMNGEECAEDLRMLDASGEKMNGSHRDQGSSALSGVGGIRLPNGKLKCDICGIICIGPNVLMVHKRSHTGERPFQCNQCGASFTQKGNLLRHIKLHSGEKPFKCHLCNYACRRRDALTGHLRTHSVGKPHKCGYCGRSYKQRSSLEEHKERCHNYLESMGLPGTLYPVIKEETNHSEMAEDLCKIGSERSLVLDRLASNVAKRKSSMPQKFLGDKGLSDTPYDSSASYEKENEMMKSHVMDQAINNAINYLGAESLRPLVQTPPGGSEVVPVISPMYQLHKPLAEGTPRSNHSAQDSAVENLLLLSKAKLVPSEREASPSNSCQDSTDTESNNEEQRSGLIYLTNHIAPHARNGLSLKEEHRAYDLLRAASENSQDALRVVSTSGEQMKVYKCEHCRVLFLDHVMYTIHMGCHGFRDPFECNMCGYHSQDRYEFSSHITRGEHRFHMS
Sequence of IKZF1 protein (Q96SW2 whole entry): as the sequence (Q96SW2 whole entry) above
Sequence of IKZF1 protein (Q16531 whole entry partner): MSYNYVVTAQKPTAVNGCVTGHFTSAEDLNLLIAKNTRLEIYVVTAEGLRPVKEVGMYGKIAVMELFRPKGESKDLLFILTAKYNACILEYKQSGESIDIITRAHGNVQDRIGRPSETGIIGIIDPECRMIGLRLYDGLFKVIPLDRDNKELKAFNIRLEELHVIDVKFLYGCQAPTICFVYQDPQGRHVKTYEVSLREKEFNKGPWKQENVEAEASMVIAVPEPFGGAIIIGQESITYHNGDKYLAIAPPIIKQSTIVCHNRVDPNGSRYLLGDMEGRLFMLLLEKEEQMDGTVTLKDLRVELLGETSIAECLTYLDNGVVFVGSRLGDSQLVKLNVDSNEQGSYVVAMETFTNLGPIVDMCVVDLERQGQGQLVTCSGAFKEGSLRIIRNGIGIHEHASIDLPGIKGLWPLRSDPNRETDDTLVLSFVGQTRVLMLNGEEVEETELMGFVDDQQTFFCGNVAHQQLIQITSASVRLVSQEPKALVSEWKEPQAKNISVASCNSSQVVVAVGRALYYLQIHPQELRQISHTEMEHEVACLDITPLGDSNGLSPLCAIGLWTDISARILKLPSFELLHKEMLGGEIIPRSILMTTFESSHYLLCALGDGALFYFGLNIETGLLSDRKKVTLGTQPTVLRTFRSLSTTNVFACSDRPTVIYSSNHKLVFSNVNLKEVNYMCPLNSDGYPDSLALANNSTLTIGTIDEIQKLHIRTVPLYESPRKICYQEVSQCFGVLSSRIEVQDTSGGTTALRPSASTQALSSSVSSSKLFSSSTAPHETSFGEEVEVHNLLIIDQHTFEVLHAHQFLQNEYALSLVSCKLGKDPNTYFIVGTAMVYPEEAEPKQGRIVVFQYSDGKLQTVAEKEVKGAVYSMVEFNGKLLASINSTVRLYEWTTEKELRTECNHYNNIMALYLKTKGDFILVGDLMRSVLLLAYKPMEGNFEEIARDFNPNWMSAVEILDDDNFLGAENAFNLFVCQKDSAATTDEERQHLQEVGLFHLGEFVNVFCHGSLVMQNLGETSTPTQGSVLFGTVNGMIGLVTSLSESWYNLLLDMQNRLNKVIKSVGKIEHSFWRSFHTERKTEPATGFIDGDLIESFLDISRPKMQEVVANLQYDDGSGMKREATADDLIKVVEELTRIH
Sequence of GSPT1 protein (P15170 whole entry): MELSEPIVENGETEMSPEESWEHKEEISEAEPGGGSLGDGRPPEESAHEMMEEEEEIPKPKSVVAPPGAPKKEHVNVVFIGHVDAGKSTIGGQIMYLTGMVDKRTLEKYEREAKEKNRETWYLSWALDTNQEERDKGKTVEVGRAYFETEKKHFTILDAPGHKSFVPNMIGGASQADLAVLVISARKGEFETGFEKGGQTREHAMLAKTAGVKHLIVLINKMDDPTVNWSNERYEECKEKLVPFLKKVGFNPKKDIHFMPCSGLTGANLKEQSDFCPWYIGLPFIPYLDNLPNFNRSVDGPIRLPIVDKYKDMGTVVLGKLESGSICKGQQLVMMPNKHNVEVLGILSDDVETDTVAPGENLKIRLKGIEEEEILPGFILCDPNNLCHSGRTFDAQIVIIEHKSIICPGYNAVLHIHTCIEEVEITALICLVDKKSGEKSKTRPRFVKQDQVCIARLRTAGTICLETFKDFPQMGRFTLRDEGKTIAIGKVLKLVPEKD
Sequence of GSPT1 protein (Q96SW2 whole entry): as the sequence (Q96SW2 whole entry) above
Sequence of GSPT1 protein (Q16531 whole entry partner): as the sequence (Q16531 whole entry partner) above
Sequence of IKZF3 protein (Q9UKT9 whole entry): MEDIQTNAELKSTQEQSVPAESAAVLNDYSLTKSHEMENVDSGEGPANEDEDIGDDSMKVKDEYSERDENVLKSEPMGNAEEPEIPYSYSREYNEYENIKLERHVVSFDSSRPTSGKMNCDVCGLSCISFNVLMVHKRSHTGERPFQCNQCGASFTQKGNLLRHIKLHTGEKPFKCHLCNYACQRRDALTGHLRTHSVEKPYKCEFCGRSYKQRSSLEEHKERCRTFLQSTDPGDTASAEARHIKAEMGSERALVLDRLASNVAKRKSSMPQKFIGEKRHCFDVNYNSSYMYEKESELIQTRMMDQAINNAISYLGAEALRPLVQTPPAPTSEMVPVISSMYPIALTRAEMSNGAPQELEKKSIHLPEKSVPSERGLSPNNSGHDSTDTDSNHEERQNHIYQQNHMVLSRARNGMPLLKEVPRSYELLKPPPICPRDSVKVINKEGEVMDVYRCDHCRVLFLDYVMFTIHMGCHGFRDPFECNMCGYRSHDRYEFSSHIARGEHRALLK
Sequence of IKZF3 protein (Q96SW2 whole entry): as the sequence (Q96SW2 whole entry) above
Sequence of IKZF3 protein (Q16531 whole entry partner): as the sequence (Q16531 whole entry partner) above

As to `O=C1CCC(N2Cc3c(ccc(CN4CCN(CC5=C(c6ccc(F)cc6)CCCC5)CC4)c3F)C2=O)C(=O)N1` (stereo not shown) [GT-05466, 3-(4-fluoro-5-((4-((4′-fluoro-3,4,5,6-tetrahydro-[1,1′-biphenyl]-2-yl)methyl)piperazin-1-yl)methyl)-1-oxoisoindolin-2-yl)piperidine-2,6-dione], the “residual substrate protein level, IKZF3” value in assay [1] is on record as “A (A represents a residual substrate protein level of <50%)”. The IC50 in assay [2] is 10 to 50 nM; in assay [3], 50 to 100 nM; in assay [4], 700 nM; in assay [7] it was 10 to 50 nM. Also, the “residual substrate protein level, GSPT1” value in assay [5] is “A (A represents a residual substrate protein level of <50%)”. Besides, the “residual substrate protein level, IKZF1” value in assay [6] was “A (A represents a residual substrate protein level of <50%)”.

`O=C1CCC(N2Cc3cc(CN4CCN(Cc5ccc(-c6cccs6)s5)CC4)ccc3C2=O)C(=O)N1` (stereo not shown) [GT-05624, 3-(5-((4-([2,2′-bithiophen]-5-ylmethyl)piperazin-1-yl)methyl)-1-oxoisoindolin-2-yl)piperidine-2,6-dione]: the “residual substrate protein level, IKZF3” value in assay [1] is reported as “A (A represents a residual substrate protein level of <50%)”. Further, the IC50 in assay [2] is 10 to 50 nM; in assay [3], 500 to 1000 nM; in assay [4] it was 470 nM; in assay [7], 100 to 500 nM. The “residual substrate protein level, GSPT1” value in assay [5] is listed as “B (B represents a residual substrate protein level of >50%)”. In addition, the “residual substrate protein level, IKZF1” value in assay [6] is on record as “A (A represents a residual substrate protein level of <50%)”.

On to `O=C1CCC(N2Cc3cc(CN4CCN(Cc5ccc(-c6ccc(Cl)cc6)s5)CC4)ccc3C2=O)C(=O)N1` (stereo not shown) [GT-05625, 3-(5-((4-((5-(4-chlorophenyl)thiophen-2-yl)methyl)piperazin-1-yl)methyl)-1-oxoisoindolin-2-yl)piperidine-2,6-dione], for which the “residual substrate protein level, IKZF3” value in assay [1] was “B (B represents a residual substrate protein level of >50%)”. Also, the IC50 in assay [2] is 50 to 100 nM; in assay [3], 100 to 500 nM; in assay [4], 1670 nM; in assay [7] it was 100 to 500 nM. The “residual substrate protein level, GSPT1” value in assay [5] was “B (B represents a residual substrate protein level of >50%)”. For the same compound, the “residual substrate protein level, IKZF1” value in assay [6] is “B (B represents a residual substrate protein level of >50%)”.

On to `O=C1CCC(N2C(=O)c3ccc(CN4CCN(Cc5ccc(-c6ccc(Cl)cc6)s5)CC4)cc3C2=O)C(=O)N1` (stereo not shown) [GT-05626, 5-((4-((5-(4-chlorophenyl)thiophen-2-yl)methyl)piperazin-1-yl)methyl)-2-(2,6-dioxopiperidin-3-yl)isoindoline-1,3-dione], for which, in assay [1], the “residual substrate protein level, IKZF3” value is listed as “B (B represents a residual substrate protein level of >50%)”. Besides, the IC50 in assay [2], in assay [3] and in assay [8] was 500 to 1000 nM each time. Besides, the “residual substrate protein level, GSPT1” value in assay [5] was “B (B represents a residual substrate protein level of >50%)”. In addition, the “residual substrate protein level, IKZF1” value in assay [6] is on record as “B (B represents a residual substrate protein level of >50%)”.

As for `O=C1CCC(N2Cc3cc(CN4CCN(Cc5ccc(-c6ccc(Cl)cc6)nc5)CC4)ccc3C2=O)C(=O)N1` (stereo not shown) [GT-05632, 3-(5-((4-((6-(4-chlorophenyl)pyridin-3-yl)methyl)piperazin-1-yl)methyl)-1-oxoisoindolin-2-yl)piperidine-2,6-dione], the IC50 is < 5 nM in assay [2], 10 to 50 nM in assay [3], 720 nM in assay [4] and 100 to 500 nM in assay [7].

With `O=C1CCC(N2Cc3cc(CN4CCN(Cc5ccc(-c6ccncc6)nc5)CC4)ccc3C2=O)C(=O)N1` (stereo not shown) [GT-05633, 3-(5-((4-([2,4′-bipyridin]-5-ylmethyl)piperazin-1-yl)methyl)-1-oxoisoindolin-2-yl)piperidine-2,6-dione], the “residual substrate protein level, IKZF3” value in assay [1] is reported as “A (A represents a residual substrate protein level of <50%)”. The IC50 was < 5 nM in assay [2], 100 to 500 nM in assay [3] and 760 nM in assay [4]. In assay [5], the “residual substrate protein level, GSPT1” value is listed as “B (B represents a residual substrate protein level of >50%)”. Moreover, the “residual substrate protein level, IKZF1” value in assay [6] was “A (A represents a residual substrate protein level of <50%)”.

With `CC1(C)CC(c2ccc(Cl)cc2)=C(CN2CCN(Cc3ccc4c(c3)CN(C3CCC(=O)NC3=O)C4=O)CC2)CO1` (stereo not shown) [GT-05672, 3-(5-((4-((4-(4-chlorophenyl)-6,6-dimethyl-5,6-dihydro-2H-pyran-3-yl)methyl)piperazin-1-yl)methyl)-1-oxoisoindolin-2-yl)piperidine-2,6-dione], the “residual substrate protein level, IKZF3” value in assay [1] is “A (A represents a residual substrate protein level of <50%)”. Besides, the IC50 is 10 to 50 nM in assay [2], 500 to 1000 nM in assay [3], 580 nM in assay [4] and 10 to 50 nM in assay [7]. Further, the “residual substrate protein level, GSPT1” value in assay [5] is recorded as “A (A represents a residual substrate protein level of <50%)”. Moreover, in assay [6], the “residual substrate protein level, IKZF1” value was “A (A represents a residual substrate protein level of <50%)”.

On to `Cn1cccc1-c1ccccc1CN1CCN(Cc2ccc3c(c2)CN(C2CCC(=O)NC2=O)C3=O)CC1` (stereo not shown) [GT-05683, 3-(5-((4-(2-(1-methyl-1H-pyrrol-2-yl)benzyl)piperazin-1-yl)methyl)-1-oxoisoindolin-2-yl)piperidine-2,6-dione], for which the IC50 in assay [2] is 10 to 50 nM; in assay [3] it was 50 to 100 nM; in assay [4], 750 nM; in assay [8], 5 to 10 nM; in assay [7] it was 5 to 10 nM.

On to `O=C1CCC(N2Cc3cc(CN4CCN(Cc5ccc(-c6ccco6)cc5)CC4)ccc3C2=O)C(=O)N1` (stereo not shown) [GT-05693, 3-(5-((4-(4-(furan-2-yl)benzyl)piperazin-1-yl)methyl)-1-oxoisoindolin-2-yl)piperidine-2,6-dione], for which, in assay [1], the “residual substrate protein level, IKZF3” value is on record as “A (A represents a residual substrate protein level of <50%)”. Moreover, the IC50 in assay [2] is 10 to 50 nM; in assay [3], 500 to 1000 nM; in assay [4], 310 nM; in assay [7], 100 to 500 nM. Further, the “residual substrate protein level, GSPT1” value in assay [5] is “B (B represents a residual substrate protein level of >50%)”. The “residual substrate protein level, IKZF1” value in assay [6] is recorded as “B (B represents a residual substrate protein level of >50%)”.

Regarding `O=C1CCC(N2Cc3cc(CN4CCN(Cc5cnccc5-c5ccc(Cl)cc5)CC4)ccc3C2=O)C(=O)N1` (stereo not shown) [GT-05703, 3-(5-((4-((4-(4-chlorophenyl)pyridin-3-yl)methyl)piperazin-1-yl)methyl)-1-oxoisoindolin-2-yl)piperidine-2,6-dione], the “residual substrate protein level, IKZF3” value in assay [1] was “A (A represents a residual substrate protein level of <50%)”. For the same compound, the IC50 in assay [2] is 10 to 50 nM; in assay [3], 100 to 500 nM; in assay [4], 530 nM; in assay [7] it was 5 to 10 nM. Also, in assay [5], the “residual substrate protein level, GSPT1” value is “B (B represents a residual substrate protein level of >50%)”. The “residual substrate protein level, IKZF1” value in assay [6] was “A (A represents a residual substrate protein level of <50%)”.

With `O=C1CCC(N2Cc3cc(CN4CCN(Cc5ccc(-c6ccco6)s5)CC4)ccc3C2=O)C(=O)N1` (stereo not shown) [GT-05780, 3-(5-((4-((5-(furan-2-yl)thiophen-2-yl)methyl)piperazin-1-yl)methyl)-1-oxoisoindolin-2-yl)piperidine-2,6-dione], the “residual substrate protein level, IKZF3” value in assay [1] was “A (A represents a residual substrate protein level of <50%)”. For the same compound, the IC50 was 5 to 10 nM in assay [2], 100 to 500 nM in assay [3], 230 nM in assay [4] and 500 to 1000 nM in assay [7]. Moreover, the “residual substrate protein level, GSPT1” value in assay [5] is “A (A represents a residual substrate protein level of <50%)”. For the same compound, in assay [6], the “residual substrate protein level, IKZF1” value is listed as “A (A represents a residual substrate protein level of <50%)”.

Take `O=C1CCC(N2Cc3cc(NC4CCN(C(=O)c5ccccc5-c5ccc(Cl)cc5)CC4)ccc3C2=O)C(=O)N1` (stereo not shown) [GT-05784, 3-(5-((1-(4′-chloro-[1,1′-biphenyl]-2-carbonyl)piperidin-4-yl)amino)-1-oxoisoindolin-2-yl)piperidine-2,6-dione]: the IC50 was < 5 nM in assay [2]; 10 to 50 nM in assay [3]; 620 nM in assay [4]; < 5 nM in assay [8]; < 5 nM in assay [7].

In the case of `CC1(C)CCC(CN2CCN(Cc3ccc4c(c3)CN(C3CCC(=O)NC3=O)C4=O)CC2)=C(c2cncs2)C1` (stereo not shown) [GT-05791, 3-(5-((4-((4,4-dimethyl-2-(thiazol-5-yl)cyclohex-1-en-1-yl)methyl)piperazin-1-yl)methyl)-1-oxoisoindolin-2-yl)piperidine-2,6-dione], the “residual substrate protein level, IKZF3” value in assay [1] is on record as “A (A represents a residual substrate protein level of <50%)”. The IC50 in assay [2] was 10 to 50 nM; in assay [3] it was 500 to 1000 nM; in assay [4] it was 730 nM; in assay [7], 10 to 50 nM. In addition, in assay [5], the “residual substrate protein level, GSPT1” value was “B (B represents a residual substrate protein level of >50%)”. Also, the “residual substrate protein level, IKZF1” value in assay [6] was “A (A represents a residual substrate protein level of <50%)”.
